Square brackets hold non-standard residues; d marks the D form. Peptide text beside a SMILES is read from it. * marks the point of attachment. Phe(F5) = N[C@@H](Cc1c(F)c(F)c(F)c(F)c1F)C(=O)O; Phe(4-Cl) = N[C@@H](Cc1ccc(Cl)cc1)C(=O)O; hArg = N=C(N)NCCCC[C@H](N)C(=O)O; 12Ado = NCCCCCCCCCCCC(=O)O; Nle = CCCC[C@H](N)C(=O)O; Orn = NCCC[C@H](N)C(=O)O; Abu = CC[C@H](N)C(=O)O; PhAc = O=C(Cc1ccccc1)*
Assays:
[1] = system: HCN-2 cells; assay: Cell viability assay, HCN-2 cells treated with amyloid-β1-42 (MTT), Example 5; assay type: cell-based; details: 10 μM amyloid-β1-42; peptide 10 nM, 100 nM, 1 μM; four days of exposure; FIG. 7
Description: Differentiated HCN-2A neuronal cells were treated with 10 μM amyloid-β1-42 alone and in combination with 10 nM, 100 nM and 1 μM of MIA-602, MIA-606 and MIA 640. After the treatment, the cell viability was determinate as indicated by the supplier using the Promega Cell Titer 96® Aqueous Non-Radioactive Cell Proliferation Assay. The absorbance level was determined at 490 nm. Data are percentage of control (n=3).
HCN-2 cells (American Type Culture Collection, Manassas, Va., USA) were cultured in DMEM medium (supplemented with 10% Fetal Bovine Serum (FBS) and 0.1% penicillin/streptomycin) at 37° C. and in an atmosphere of air and 5% CO2. Cell were directly plated into 96-well micro plates at 5,000 cells/cm^2. After 7 days, to allow cell number duplication (up to 70-80% confluence), the differentiation of HCN-2 cells was induced by adding fresh medium containing 25 ng/ml NGF, 0.5 mM dibutyryl cAMP and 0.5 mM isobutylmethylxanthine (IBMX) (all from Sigma-Aldrich, St. Louis, Mo.) for a week. Then, human amyloid-β1-42 (Sunnyvale, Calif.) stock solution (10 mM) was prepared in TRIS and then immediately diluted to appropriate concentrations in the assay medium. The medium used for neurotoxicity assay was N2-supplemented DMEMF12 (Gibco BRL, NY) with 2% FBS. The treatment groups were control, amyloid-β1-42, and the combination treatments with amyloid-β1-42 and 3 doses (10 nM, 100 nM and 1 μM) of the analogs (MIA-602, MIA-606 and MIA-640). The effect of the analogs on cell viability was evaluated after four days of exposure by using the 3-(4,5-Dimethylthiazol-2-yl)-2,5-diphenyltetrazolium bromide (MTT) assay (Cell Titer 96® Non-Radioactive Cell Proliferation Assay, Promega, Madison, Wis.), according to the manufacturer's instructions.

[2] = system: Alzheimer's disease related genes; assay: Mouse Alzheimer's Disease real-time quantitative PCR array on brain samples of 5XFAD mice; assay type: in vivo; details: brain of 5XFAD mice, 10 μg daily for six months
Description: Total RNA was isolated and DNAse treated from representative hemispheria using NucleoSpin kit according to the manufacturer's instructions (Macherey-Nagel Inc., Bethlehem, Pa.). Five samples each from the control and the 10 μg MIA-690 group were analyzed. The yield and the quality of RNA samples were determined spectrophotometrically using 260 nm, and 260/280 and 260/230 nm ratio. The synthesis of cDNA was performed as follows. Briefly, 1 μg of RNA from each sample was reverse-transcribed into cDNA by RT First Strand kit (Qiagen). Reverse transcription was done in a Veriti 96-well thermal cycler (Applied Biosystems). The Mouse Alzheimer's Disease real-time quantitative PCR array (PAMM-057Z Qiagen) used in the study contains 84 unique genes related to Alzheimer's disease. All PCR arrays were performed using iQ5 Multicolor Real-Time Detections System (Bio-Rad). […] Data analysis of gene expression was performed using Excel based PCR Array Data Analysis Software provided by the manufacturer (Qiagen): fold-changes in gene expression were calculated using the ΔΔCt method and five stably expressed housekeeping genes (Act b, B2m, GAPDH, Gus b, Hsp 90 ab1) were used for normalization of the results.

Compound | viability of neurons (HCN-2) under amyloid-β1-42 co-treatment [1] | Fold change vs. controls: amyloid-β (A4) precursor protein binding family A, member 2 [2] [fold] | Fold change vs. controls: amyloid-β (A4) precursor protein binding family B, member 3 [2] [fold]
Phac-Ada-Tyr^1-D-Arg^2-Asp^3-Ala^4-Ile^5-Phe(F)5^6-Thr^7-Ala^8-Har^9-Tyr(Me)^10-His^11-Orn^12-Val^13-Leu^14-Abu^15-Gln^16-Leu^17-Ser^18-Ala^19-His^20-Orn^21-Leu^22-Leu^23-Gln^24-Asp^25-Ile^26-Nle^27-D-Arg^28-Har^29-NH2 [MIA-602] | attenuated the toxic impact of co-treatment with amyloid-β1-42 on the viability of neurons | – | –
Phac-Ada-Tyr^1-D-Arg^2-Asp^3-Ala^4-Ile^5-Cpa^6-Thr^7-Ala^8-Har^9-Fpa5^10-His^11-Orn^12-Val^13-Leu^14-Abu^15-Gln^16-Glu^17-Ser^18-Ala^19-His^20-Orn^21-Leu^22-Leu^23-Gln^24-Asp^25-Ile^26-Nle^27-D-Arg^28-Har^29-Ada-NH2 [MIA-640] | attenuated the toxic impact of co-treatment with amyloid-β1-42 on the viability of neurons | – | –
Phac-Ada-Tyr^1-D-Arg^2-Asp^3-Ala^4-Ile^5-Phe(F)5^6-Thr^7-Me-Ala^8-Har^9-Tyr(Me)^10-His^11-Orn^12-Val^13-Leu^14-Abu^15-Gln^16-Leu^17-Ser^18-Ala^19-His^20-Orn^21-Leu^22-Leu^23-Gln^24-Asp^25-Ile^26-Nle^27-D-Arg^28-Har^29-Agm-NH2 [MIA-606] | attenuated the toxic impact of co-treatment with amyloid-β1-42 on the viability of neurons | – | –
CCCC[C@H](NC(=O)[C@@H](NC(=O)[C@H](CC(=O)O)NC(=O)[C@H](CCC(N)=O)NC(=O)[C@H](CC(C)C)NC(=O)[C@H](CC(C)C)NC(=O)[C@H](CCCN)NC(=O)[C@H](Cc1c[nH]cn1)NC(=O)[C@H](C)NC(=O)[C@H](CO)NC(=O)[C@H](CC(C)C)NC(=O)[C@H](CCC(N)=O)NC(=O)[C@H](CC)NC(=O)[C@H](CC(C)C)NC(=O)[C@@H](NC(=O)[C@H](CCCN)NC(=O)[C@H](Cc1c[nH]cn1)NC(=O)[C@H](Cc1c(F)c(F)c(F)c(F)c1F)NC(=O)[C@H](CCCCNC(=N)N)NC(=O)[C@H](C)NC(=O)[C@@H](NC(=O)[C@H](Cc1ccc(Cl)cc1)NC(=O)[C@@H](NC(=O)[C@H](C)NC(=O)[C@H](CC(=O)O)NC(=O)[C@@H](CCCNC(=N)N)NC(=O)[C@H](Cc1ccc(O)cc1)NC(=O)CCCCCCCCCCCNC(=O)Cc1ccccc1)[C@@H](C)CC)[C@@H](C)O)C(C)C)[C@@H](C)CC)C(=O)N[C@H](CCCNC(=N)N)C(=O)N[C@@H](CCCCNC(=N)N)C(N)=O [MIA-690, Phac-Ada-Tyr^1-D-Arg^2-Asp^3-Ala^4-Ile^5-Cpa^6-Thr^7-Ala^8-Har^9-Fpa5^10-His^11-Orn^12-Val^13-Leu^14-Abu^15-Gln^16-Leu^17-Ser^18-Ala^19-His^20-Orn^21-Leu^22-Leu^23-Gln^24-Asp^25-Ile^26-Nle^27-D-Arg^28-Har^29-NH2] ({PhAc-12Ado}-Y[dR]DAI[Phe(4-Cl)]TA[hArg][Phe(F5)]H[Orn]VL[Abu]QLSAH[Orn]LLQDI[Nle][dR][hArg]-NH2) | – | −2.94 | −2.04
